Target: T1, PI3Kα H1047R (T47D cells) (Homo sapiens, UniProt P42336, H1047R)
T1 construct: endogenous in cells; host or cells: T47D cells
Experiment: PI3Kα cellular assay: pAKT HTRF in T47D cells after EGF stimulation
Type: cell-based
Details: for IC50: T47D cells (PI3Kα H1047R), pAKT S473 HTRF
Procedure, shortened: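 T47D cells (PIK3CA H1047R) serum-starved 16 h, then treated 1 h at 37 °C with compound (10,000 nM top, 3-fold steps to 0.5 nM). After 10 min stimulation with 20 ng/mL EGF, cells were lysed and pAKT measured by HTRF.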

[1] = 1 hr compound, 20 ng/ml EGF 10 min
[2] = selectivity T47D (H1047R) over SKBR3 (WT), pAKT HTRF
[3] = selectivity of T47D (H1047R) over SKBR3 (WT) pAKT IC50

T1 sequence (P42336 whole entry H1047R): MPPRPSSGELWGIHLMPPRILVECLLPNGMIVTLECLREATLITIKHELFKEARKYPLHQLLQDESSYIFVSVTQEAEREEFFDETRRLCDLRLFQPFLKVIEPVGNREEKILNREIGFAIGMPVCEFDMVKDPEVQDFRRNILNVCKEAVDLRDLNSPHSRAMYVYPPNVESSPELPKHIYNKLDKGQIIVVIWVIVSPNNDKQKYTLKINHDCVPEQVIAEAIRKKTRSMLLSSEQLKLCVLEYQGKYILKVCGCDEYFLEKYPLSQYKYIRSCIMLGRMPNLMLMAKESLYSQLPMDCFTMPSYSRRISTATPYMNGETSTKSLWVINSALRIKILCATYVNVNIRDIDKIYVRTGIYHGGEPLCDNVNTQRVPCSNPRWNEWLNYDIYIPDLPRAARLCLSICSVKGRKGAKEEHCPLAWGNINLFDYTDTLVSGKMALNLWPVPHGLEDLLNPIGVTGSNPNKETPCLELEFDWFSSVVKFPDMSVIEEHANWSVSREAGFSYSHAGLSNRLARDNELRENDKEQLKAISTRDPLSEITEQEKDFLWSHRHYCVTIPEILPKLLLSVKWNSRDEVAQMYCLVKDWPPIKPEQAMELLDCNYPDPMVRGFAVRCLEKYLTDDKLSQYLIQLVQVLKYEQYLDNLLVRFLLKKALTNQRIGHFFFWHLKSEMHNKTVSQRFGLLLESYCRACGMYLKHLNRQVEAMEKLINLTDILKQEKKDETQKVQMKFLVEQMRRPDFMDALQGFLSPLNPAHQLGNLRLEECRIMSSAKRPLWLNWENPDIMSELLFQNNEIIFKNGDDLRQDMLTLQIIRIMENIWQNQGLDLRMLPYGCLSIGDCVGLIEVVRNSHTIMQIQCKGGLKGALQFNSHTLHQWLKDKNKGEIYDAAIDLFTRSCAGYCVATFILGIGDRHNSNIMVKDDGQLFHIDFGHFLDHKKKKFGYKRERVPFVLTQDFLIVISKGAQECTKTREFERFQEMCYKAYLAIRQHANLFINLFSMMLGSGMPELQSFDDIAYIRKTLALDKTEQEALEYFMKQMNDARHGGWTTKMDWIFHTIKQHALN
T1 sequence (P27986 whole entry partner): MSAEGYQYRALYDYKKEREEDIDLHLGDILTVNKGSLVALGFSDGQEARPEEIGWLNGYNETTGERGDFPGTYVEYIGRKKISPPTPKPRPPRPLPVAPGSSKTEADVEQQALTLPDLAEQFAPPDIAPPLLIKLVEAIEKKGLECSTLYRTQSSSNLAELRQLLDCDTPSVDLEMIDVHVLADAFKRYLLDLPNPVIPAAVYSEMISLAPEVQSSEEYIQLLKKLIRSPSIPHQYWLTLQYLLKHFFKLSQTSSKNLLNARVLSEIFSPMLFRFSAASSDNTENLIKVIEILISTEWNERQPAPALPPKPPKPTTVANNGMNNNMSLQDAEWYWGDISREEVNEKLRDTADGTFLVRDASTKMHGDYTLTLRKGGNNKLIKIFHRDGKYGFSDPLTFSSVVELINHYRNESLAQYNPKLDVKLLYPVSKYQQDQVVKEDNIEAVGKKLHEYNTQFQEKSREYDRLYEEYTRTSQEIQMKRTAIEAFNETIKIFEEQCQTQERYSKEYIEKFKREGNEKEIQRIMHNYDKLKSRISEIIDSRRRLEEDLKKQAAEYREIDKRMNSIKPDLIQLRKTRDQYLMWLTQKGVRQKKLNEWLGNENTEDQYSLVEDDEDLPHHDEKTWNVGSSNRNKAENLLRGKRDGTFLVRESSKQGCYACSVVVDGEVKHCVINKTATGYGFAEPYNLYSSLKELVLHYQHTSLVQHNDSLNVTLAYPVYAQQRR

Row | SMILES | IC50 (EGF stimulation) [µM] | IC50 [1] [µM] | T47D pAKT S473 HTRF IC50 (H1047R): T47D (H1047R) selectivity over SKBR3 (WT) [2] | T47D pAKT S473 HTRF IC50 (H1047R): T47D (H1047R) selectivity over SKBR3 (WT) [3]
1 | Cc1cc([C@@H](C)Nc2ccccc2C(=O)O)c2nc(N3Cc4ccccc4[C@@H]3C)cc(=O)n2c1 (single isomer, unassigned) [Compound 652] | < 0.1 | – | – | –
2 | Cc1cc(C(C)Nc2ccccc2C(=O)O)c2nc(-c3ccncc3)cc(=O)n2c1 (centres unmarked) [Compound 267] | – | 0.1 to 0.5 | A (A denotes >20-fold) | –
3 | CC[C@@H](Nc1ccccc1C(=O)O)c1cc(C)cn2c(=O)cc(N3CCOCC3)nc12 [Compound 293] | – | > 2 | C (C denotes ≤5-fold) | –
4 | Cc1cc(C(C)Nc2cccc3c2OCC(=O)N3)c2nc(N3CCOCC3)cc(=O)n2c1 (centres unmarked) [Compound 684] | > 2 | – | – | C (C denotes ≤5-fold)
5 | Cc1cc([C@@H](C)Nc2ccccc2C(=O)O)c2nc(-c3cccc(F)c3)c(C)c(=O)n2c1 (single isomer, unassigned) [Compound 969] | < 0.1 | – | – | A (A denotes >20-fold)
6 | Cc1cc([C@@H](C)Nc2ccccc2C(=O)O)c2nc(-c3ccc4c(c3)c(N)nn4C)c(C)c(=O)n2c1 [Compound 785] | < 0.1 | – | – | A (A denotes >20-fold)
7 | Cc1cc([C@H](C)Nc2ccccc2C(=O)O)c2nc(C3C[C@@H](C)O[C@@H](C)C3)cc(=O)n2c1 (some centres unmarked) [Compound 925] | 0.5 to 2 | – | – | B (B denotes 20-fold≥value>5-fold)
8 | Cc1cc(C(C)Nc2cnccc2C(=O)O)c2nc(N3CCOCC3)cc(=O)n2c1 (centres unmarked) [Compound 194] | – | > 2 | C (C denotes ≤5-fold) | –
9 | Cc1cc([C@H](C)Nc2ccccc2C(=O)O)c2nc(-c3ccc(C(=O)N(C)C)cc3)cc(=O)n2c1 [Compound 659] | > 2 | – | – | C (C denotes ≤5-fold)
10 | Cc1cc([C@@H](C)Nc2cccc(CO)c2C(=O)O)c2nc(-c3ccc4c(c3)c(C)nn4C)cc(=O)n2c1 [Compound 940] | > 2 | – | – | C (C denotes ≤5-fold)
11 | Cc1cc(C(C)Nc2ccccc2S(N)(=O)=O)c2nc(-c3ccc(C4CNC4)nc3)c(C)c(=O)n2c1.O=C(O)C(F)(F)F (centres unmarked) [Compound 1305] | > 2 | – | C (C denotes ≤5-fold) | –
12 | CCc1ccn2c(=O)c(C)c(-c3cccc(F)c3)nc2c1[C@@H](C)Nc1ccccc1C(=O)O [Compound 1325] | – | – | C (C denotes ≤5-fold) | –
13 | Cc1cc(C(C)Nc2ccccc2C(=O)O)c2nc(N3CCN(c4ccncc4)CC3)cc(=O)n2c1 (centres unmarked) [Compound 467] | – | > 2 | C (C denotes ≤5-fold) | –
14 | Cc1cc([C@H](C)Nc2ccccc2C#N)c2nc(N3CCOCC3)cc(=O)n2c1 [Compound 338] | – | > 2 | C (C denotes ≤5-fold) | –
15 | Cc1cc(C(C)Nc2cc(F)ccc2C(=O)O)c2nc(-c3ccnc(C4CC4)c3)c(C)c(=O)n2c1 (centres unmarked) [Compound 1182] | < 0.1 | – | A (A denotes >20-fold) | –
16 | Cc1cc(C(C)Nc2ccccc2C(=O)O)c2nc(-c3ccc(CC4CCN(C(=O)C5CC5)CC4)c(F)c3)c(C)c(=O)n2c1 (centres unmarked) [Compound 1313] | 0.1 to 0.5 | – | A (A denotes >20-fold) | –
17 | Cc1cc([C@H](C)Nc2ccccc2C(=O)C(F)(F)F)c2nc(N3Cc4ccccc4C3)c(C)c(=O)n2c1 [Compound 958] | > 2 | – | – | C (C denotes ≤5-fold)
18 | C=CC(=O)Nc1ccc(C(=O)O)c(N[C@H](C)c2cc(C)cn3c(=O)c(C)c(N4Cc5ccccc5C4)nc23)c1 [Compound 1121] | > 2 | – | C (C denotes ≤5-fold) | –
19 | Cc1cc([C@@H](C)Nc2ccccc2-c2ccnnc2)c2nc(-c3ccc4c(C)nn(C5CC5)c4c3)c(C)c(=O)n2c1 [Compound 1128] | > 2 | – | C (C denotes ≤5-fold) | –
20 | Cc1cc(C(C)Nc2ccccc2)c2nc(-c3ccc(N4CC(C)(C)C4)c(C#N)c3)cc(=O)n2c1 (centres unmarked) [Compound 280] | – | – | C (C denotes ≤5-fold) | –
21 | Cc1cc([C@H](C)Nc2ccccc2C(=O)O)c2nc(-c3ccc4ccnn4c3)c(C)c(=O)n2c1 [Compound 1299] | > 2 | – | C (C denotes ≤5-fold) | –
22 | Cc1cc(C(C)Nc2ccccc2C(=O)O)c2nc(-c3ccc(C(=O)N(C)C)cc3)cc(=O)n2c1 (centres unmarked) [Compound 657] | – | – | – | B (B denotes 20-fold≥value>5-fold)

Row | SMILES | IC50 (EGF stimulation) [µM] | IC50 [1] [µM] | T47D pAKT S473 HTRF IC50 (H1047R): T47D (H1047R) selectivity over SKBR3 (WT) [2] | T47D pAKT S473 HTRF IC50 (H1047R): T47D (H1047R) selectivity over SKBR3 (WT) [3]
23 | CC(=O)N1CCC(Cc2ccc(-c3nc4c([C@H](C)Nc5ccccc5C(=O)O)cc(C)cn4c(=O)c3C)cc2F)CC1 [Compound 1334] | – | – | B (B denotes 20-fold≥value>5-fold) | –
24 | Cc1cc(C(C)NC2=C(C(=O)O)C=CCC2)c2nc(-c3ccc(CC4CCN(C(=O)C5CC5)CC4)nc3)cc(=O)n2c1 (centres unmarked) [Compound 759] | – | – | – | C (C denotes ≤5-fold)
25 | Cc1cc([C@H](C)Nc2ccccc2C(=O)O)c2nc(N3C[C@@H](C)C(F)(F)[C@@H](C)C3)cc(=O)n2c1 [Compound 712, 2-(((S)-1-(2-((3S,5R)-4,4-difluoro-3,5-dimethylpiperidin-1-yl)-7-methyl-4-oxo-4H-pyrido[1,2-a]pyrimidin-9-yl)ethyl)amino)benzoic acid] | > 2 | – | – | C (C denotes ≤5-fold)
26 | Cc1cc([C@@H](C)Nc2ccccc2-c2ccnnc2)c2nc(C3Cc4ccccc4C3)cc(=O)n2c1 [Compound 718] | – | – | – | C (C denotes ≤5-fold)
27 | Cc1cc([C@@H](C)Nc2ccccc2C(=O)O)c2nc(-c3ccnc(C4CC4)c3)cc(=O)n2c1 [Compound 1155] | > 2 | – | C (C denotes ≤5-fold) | –
28 | CC(=O)Oc1nc2ccc(-c3cc(=O)n4cc(C)cc([C@H](C)Nc5ccccc5C(=O)O)c4n3)cn2n1 [Compound 518] | – | > 2 | C (C denotes ≤5-fold) | –
29 | CNc1nn(C)c2ccc(-c3cc(=O)n4cc(C)cc([C@@H](C)Nc5ccccc5C(=O)O)c4n3)cc12 [Compound 767] | < 0.1 | – | – | A (A denotes >20-fold)
30 | Cc1cc([C@H](C)Nc2ccccc2C(=O)O)c2nc([C@H]3CCCC(CC(F)F)C3)c(C)c(=O)n2c1 (some centres unmarked) [Compound 1331] | – | – | C (C denotes ≤5-fold) | –
31 | Cc1cc([C@H](C)Nc2ccccc2C(=O)O)c2nc(-c3ccc4c(c3)c(N(C)C)nn4C)c(C)c(=O)n2c1 [Compound 920] | > 2 | – | – | C (C denotes ≤5-fold)
32 | Cc1cc(C(C)Nc2ccccc2C(=O)O)c2nc(N3C[C@H](C)C[C@H](C(F)F)C3)cc(=O)n2c1 (some centres unmarked) [Compound 781] | 0.1 to 0.5 | – | – | A (A denotes >20-fold)
33 | Cc1cc([C@H](C)Nc2ccccc2S(N)(=O)=O)c2nc(N3C[C@@H](C)O[C@@H](C)C3)cc(=O)n2c1 [Compound 731] | > 2 | – | – | C (C denotes ≤5-fold)
34 | COc1ccc(-c2nc3c([C@H](C)Nc4ccccc4C(=O)O)cc(C)cn3c(=O)c2C)cc1 [Compound 1071] | > 2 | – | C (C denotes ≤5-fold) | –
35 | Cc1cc(C(C)Nc2ccccc2)c2nc(-c3ccc(F)cc3)c(C)c(=O)n2c1 (centres unmarked) [Compound 1086] | > 2 | – | C (C denotes ≤5-fold) | –
36 | Cc1cc([C@@H](C)Nc2ccccc2C(=O)O)c2nc(-c3ccc(C#N)nc3)c(C)c(=O)n2c1 (single isomer, unassigned) [Compound 975] | < 0.1 | – | – | A (A denotes >20-fold)
37 | Cc1cc(C(C)Nc2ccccc2C#N)c2nc(N3CCOCC3)cc(=O)n2c1 (centres unmarked) [Compound 321] | – | > 2 | C (C denotes ≤5-fold) | –
38 | Cc1cc([C@@H](C)Nc2ccccc2C(=O)O)c2nc(C3CCN(S(N)(=O)=O)CC3)cc(=O)n2c1 [Compound 755] | > 2 | – | – | C (C denotes ≤5-fold)
39 | Cc1cc([C@H](C)Nc2ccccc2C(=O)O)c2cc(-c3ccnnc3)cc(=O)n2c1 [Compound 484] | – | > 2 | C (C denotes ≤5-fold) | –
40 | Cc1cc([C@@H](C)Nc2ccccc2C(=O)O)c2nc(N3CCC(C)(C)CC3)cc(=O)n2c1 [Compound 361] | – | < 0.1 | A (A denotes >20-fold) | –
41 | Cc1cc(C(C)Nc2ccccc2C(=O)O)c2nc(-c3ccc4nc(NC(=O)C5CC5)nn4c3)cc(=O)n2c1 (centres unmarked) [Compound 519] | – | > 2 | C (C denotes ≤5-fold) | –
42 | Cc1cc([C@H](C)Nc2ccccc2C)c2nc(N3CCOCC3)cc(=O)n2c1 [Compound 249] | – | 0.5 to 2 | C (C denotes ≤5-fold) | –
43 | Cc1cc(C(C)Nc2ccccc2S(N)(=O)=O)c2nc(N3C[C@@H](C)O[C@@H](C)C3)cc(=O)n2c1 (some centres unmarked) [Compound 729] | 0.1 to 0.5 | – | – | A (A denotes >20-fold)
44 | CCc1c(-c2ccc(F)cc2)nc2c([C@@H](C)Nc3ccccc3C(=O)O)cc(C)cn2c1=O [Compound 1115] | < 0.1 | – | A (A denotes >20-fold) | –
